Assays:
Assay in all cases: relative viability (nuclei count vs DMSO), 5 days (fraction); higher = more cells survive
[1] = compound: C[C@@H](C(=O)N[C@@H](C1CCCCC1)C(=O)N2CCC[C@H]2C(=O)N[C@@H]3[C@@H](CC4=CC=CC=C34)OCC#CC#CCO[C@@H]5CC6=CC=CC=C6[C@@H]5NC(=O)[C@@H]7CCCN7C(=O)[C@H](C8CCCCC8)NC(=O)[C@H](C)NC)NC [AZD5582] + COc1cccc2cc(-c3nc([C@H]4CC[C@H](C(=O)O)CC4)n4ncnc(N)c34)[nH]c12 [OSI-027] (partner 0.5 µM)
Procedure, shortened: (§1)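 Dosing by pin tool came one day after lung cancer cell lines were seeded in 1536-well plates, using either one drug or a fixed anchor-drug dose plus five library-drug doses (not always all listed) in √10 steps. After 5 days, nuclei were counted on 4× images. Relative viability is treated-well nuclei count divided by vehicle-well nuclei count, and values are medians of duplicate plates.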

[2] = compound: Cn1nnc2c(C(N)=O)ncn2c1=O [Temozolomide] + Nc1nc2[nH]cc(CCc3ccc(C(=O)N[C@@H](CCC(=O)O)C(=O)O)cc3)c2c(=O)[nH]1 [Pemetrexed] (partner 0.2 µM)
Procedure, shortened: as §1

[3] = compound: C[C@@H](C(=O)N[C@@H](C1CCCCC1)C(=O)N2CCC[C@H]2C(=O)N[C@@H]3[C@@H](CC4=CC=CC=C34)OCC#CC#CCO[C@@H]5CC6=CC=CC=C6[C@@H]5NC(=O)[C@@H]7CCCN7C(=O)[C@H](C8CCCCC8)NC(=O)[C@H](C)NC)NC [AZD5582]
Procedure, shortened: (§2)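 Hoechst staining, done together with fixation and permeabilisation, marked nuclei for 4× imaging and MetaXpress counting. This followed 5 days without medium change after lung cancer cell lines, kept overnight at 37 °C in 1536-well plates, were pinned with five library-drug doses (not always all listed) spaced by √10 on vehicle-anchored plates. Viability is the ratio of treated-well to vehicle-well nuclei, expressed as a median across plates. Plates passed only at control CV below 25% with at least one doubling.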

[4] = compound: Cn1nnc2c(C(N)=O)ncn2c1=O [Temozolomide]
Procedure, shortened: as §2

NCI-H3122
relative viability ([1]; first compound 0.001581 µM): 0.912
relative viability ([1]; first compound 0.005 µM): 0.891
relative viability ([1]; first compound 0.01581 µM): 1.02
relative viability ([1]; first compound 0.05 µM): 0.147
relative viability ([2]; first compound 0.2 µM): 0.187
relative viability ([2]; first compound 0.6325 µM): 0.205
relative viability ([2]; first compound 2 µM): 0.188
relative viability ([2]; first compound 6.325 µM): 0.196
relative viability ([2]; first compound 20 µM): 0.193
relative viability ([3]; 0.001581 µM): 0.938
relative viability ([3]; 0.005 µM): 1.02
relative viability ([3]; 0.01581 µM): 1
relative viability ([3]; 0.05 µM): 0.265
relative viability ([4]; 0.2 µM): 1.02
relative viability ([4]; 0.6325 µM): 1.03
relative viability ([4]; 2 µM): 1.06
relative viability ([4]; 6.325 µM): 0.945
relative viability ([4]; 20 µM): 0.97

PC-3 [JPC-3]
relative viability ([1]; first compound 0.001581 µM): 0.633
relative viability ([1]; first compound 0.005 µM): 0.596
relative viability ([1]; first compound 0.01581 µM): 0.635
relative viability ([1]; first compound 0.05 µM): 0.504
relative viability ([2]; first compound 0.2 µM): 1.22
relative viability ([2]; first compound 0.6325 µM): 1.13
relative viability ([2]; first compound 2 µM): 1.16
relative viability ([2]; first compound 6.325 µM): 1.06
relative viability ([2]; first compound 20 µM): 0.458
relative viability ([3]; 0.001581 µM): 0.885
relative viability ([3]; 0.005 µM): 0.898
relative viability ([3]; 0.01581 µM): 0.9
relative viability ([3]; 0.05 µM): 0.531
relative viability ([4]; 0.2 µM): 0.954
relative viability ([4]; 0.6325 µM): 1.08
relative viability ([4]; 2 µM): 1.09
relative viability ([4]; 6.325 µM): 1.06
relative viability ([4]; 20 µM): 0.451

PC-14
relative viability ([1]; first compound 0.001581 µM): 0.643
relative viability ([1]; first compound 0.005 µM): 1.06
relative viability ([1]; first compound 0.01581 µM): 0.703
relative viability ([1]; first compound 0.05 µM): 0.74
relative viability ([2]; first compound 0.2 µM): 0.138
relative viability ([2]; first compound 0.6325 µM): 0.12
relative viability ([2]; first compound 2 µM): 0.138
relative viability ([2]; first compound 6.325 µM): 0.145
relative viability ([2]; first compound 20 µM): 0.14
relative viability ([3]; 0.001581 µM): 0.859
relative viability ([3]; 0.005 µM): 1.03
relative viability ([3]; 0.01581 µM): 0.926
relative viability ([3]; 0.05 µM): 0.932
relative viability ([4]; 0.2 µM): 1.07
relative viability ([4]; 0.6325 µM): 1.03
relative viability ([4]; 2 µM): 0.994
relative viability ([4]; 6.325 µM): 0.944
relative viability ([4]; 20 µM): 0.529

RERF-LC-KJ
relative viability ([1]; first compound 0.01581 µM): 0.508
relative viability ([1]; first compound 0.05 µM): 0.289
relative viability ([2]; first compound 0.2 µM): 0.484
relative viability ([2]; first compound 0.6325 µM): 0.507
relative viability ([2]; first compound 2 µM): 0.486
relative viability ([2]; first compound 6.325 µM): 0.464
relative viability ([2]; first compound 20 µM): 0.461
relative viability ([3]; 0.001581 µM): 0.715
relative viability ([3]; 0.005 µM): 0.668
relative viability ([3]; 0.01581 µM): 0.912
relative viability ([3]; 0.05 µM): 0.802
relative viability ([4]; 0.2 µM): 0.982
relative viability ([4]; 0.6325 µM): 1
relative viability ([4]; 2 µM): 1.04
relative viability ([4]; 6.325 µM): 0.978
relative viability ([4]; 20 µM): 1.01

SK-LU-1
relative viability ([1]; first compound 0.001581 µM): 0.288
relative viability ([1]; first compound 0.005 µM): 0.273
relative viability ([1]; first compound 0.01581 µM): 0.344
relative viability ([1]; first compound 0.05 µM): 0.253
relative viability ([2]; first compound 0.2 µM): 1.06
relative viability ([2]; first compound 0.6325 µM): 1.01
relative viability ([2]; first compound 2 µM): 0.875
relative viability ([2]; first compound 6.325 µM): 0.495
relative viability ([2]; first compound 20 µM): 0.522
relative viability ([3]; 0.001581 µM): 0.888
relative viability ([3]; 0.005 µM): 0.777
relative viability ([3]; 0.01581 µM): 0.939
relative viability ([3]; 0.05 µM): 0.47
relative viability ([4]; 0.2 µM): 1.09
relative viability ([4]; 0.6325 µM): 1.03
relative viability ([4]; 2 µM): 0.899
relative viability ([4]; 6.325 µM): 0.554
relative viability ([4]; 20 µM): 0.467
